# Measured values taken from US20170001990A1 (Genentech, Inc., priority 2014, published 2017).
# Molecular target: Human recombinant carboxy-terminal his-tagged LDHA (amino acids 2-332) (Homo sapiens, UniProt P00338)
# Assay: LDHA enzyme inhibition assay (NADH fluorescence)
# Settings: LDHA IC50 (μM), 1 nM LDHA, NADH and pyruvate, stereochemistry of tested sample given
row,Compound,IC50
1,"CC[C@@H](Nc1cccc(C2(c3ccsc3)CC(=O)C(Sc3ccccc3Cl)C(=O)N2)n1)c1ccc(F)c(Cl)c1 (stereo partly drawn) [Example 297, 6-(6-(((R)-1-(3-chloro-4-fluorophenyl)propyl)amino)pyridin-2-yl)-3-((2-chlorophenyl)thio)-6-(thiophen-3-yl)piperidine-2,4-dione]",0.149 µM
2,"O=C1CC(c2ccsc2)(c2cccc(OCc3ccc(F)cc3)n2)NC(=O)C1Sc1ccccc1Cl (centres unmarked) [Example 300, 3-((2-chlorophenyl)thio)-6-(6-((4-fluorobenzyl)oxy)pyridin-2-yl)-6-(thiophen-3-yl)piperidine-2,4-dione]",0.144 µM
3,"O=C1CC(c2ccsc2)(c2cccc(OC3CCC(F)(F)CC3)n2)NC(=O)C1Sc1ccccc1Cl (centres unmarked) [Example 306, 3-((2-chlorophenyl)thio)-6-(6-((4,4-difluoro-cyclohexyl)oxy)pyridin-2-yl)-6-(thiophen-3-yl)piperidine-2,4-dione]",0.129 µM
4,"CC(O)c1cccc(Nc2cccc(C3(c4ccsc4)CC(=O)C(Sc4ccccc4Cl)C(=O)N3)n2)c1 (centres unmarked) [Example 307, 3-((2-chlorophenyl)thio)-6-(6-((3-(1-hydroxy-ethyl)phenyl)amino)pyridin-2-yl)-6-(thiophen-3-yl)piperidine-2,4-dione]",0.095 µM
5,"O=C1CC(c2ccsc2)(c2cccc(OCC3CCCCC3)n2)NC(=O)C1Sc1ccccc1Cl (centres unmarked) [Example 308, 3-((2-chlorophenyl)thio)-6-(6-(cyclohexylmethoxy)pyridin-2-yl)-6-(thiophen-3-yl)piperidine-2,4-dione]",0.825 µM
6,"CN(c1cccc(CO)c1)c1cccc(C2(c3ccsc3)CC(=O)C(Sc3ccccc3Cl)C(=O)N2)n1 (centres unmarked) [Example 309, 3-((2-chlorophenyl)thio)-6-(6-((3-(hydroxymethyl)phenyl)(methyl)amino)pyridin-2-yl)-6-(thiophen-3-yl)piperidine-2,4-dione]",0.408 µM
7,"CN(c1cccc(CO)c1)c1cccc(C2(c3ccsc3)CC(=O)C(Sc3ccccc3Cl)C(=O)N2)n1 (centres unmarked) [Example 310, 3-((2-chlorophenyl)thio)-6-(6-((3-(hydroxymethyl)phenyl)(methyl)amino)pyridin-2-yl)-6-(thiophen-3-yl)piperidine-2,4-dione]",0.365 µM
8,"CC(Oc1cccc(C2(c3ccsc3)CC(=O)C(Sc3ccccc3Cl)C(=O)N2)n1)c1ccc(Cl)cc1 (centres unmarked) [Example 311, 6-(6-(1-(4-chlorophenyl)ethoxy)pyridin-2-yl)-3-((2-chlorophenyl)thio)-6-(thiophen-3-yl)piperidine-2,4-dione]",0.59 µM
9,"CC(Oc1cccc(C2(c3ccsc3)CC(=O)C(Sc3ccccc3Cl)C(=O)N2)n1)c1cccc(F)c1 (centres unmarked) [Example 312, 3-((2-chlorophenyl)thio)-6-(6-(1-(3-fluorophenyl)ethoxy)pyridin-2-yl)-6-(thiophen-3-yl)piperidine-2,4-dione]",0.119 µM
10,"CC(Oc1cccc(C2(c3ccsc3)CC(=O)C(Sc3ccccc3Cl)C(=O)N2)n1)c1ccc(F)c(F)c1 (centres unmarked) [Example 313, 3-((2-chlorophenyl)thio)-6-(6-(1-(3,4-difluoro-phenyl)ethoxy)pyridin-2-yl)-6-(thiophen-3-yl) piperidine-2,4-dione]",0.105 µM
11,"O=C1CC(c2ccsc2)(c2cccc(Nc3ccc(F)nc3)n2)NC(=O)C1Sc1ccccc1Cl [Example 317, (6R)-3-(2-chlorophenyl) sulfanyl-6-[6-[(6-fluoro-3-pyridyl)amino]-2-pyridyl]-6-(3-thienyl) piperidine-2,4-dione]",0.225 µM
12,"CC(C)c1cc(F)ccc1Oc1cccc([C@@]2(c3ccsc3)CC(=O)C(Sc3ccccc3Cl)C(=O)N2)n1 (stereo partly drawn) [Example 319, (6S)-3-(2-chlorophenyl) sulfanyl-6-[6-(4-fluoro-2-isopropyl-phenoxy)-2-pyridyl]-6-(3-thienyl) piperidine-2,4-dione]",0.197 µM
13,"COC1CCC(Oc2cccc(C3(c4ccsc4)CC(=O)C(Sc4ccccc4Cl)C(=O)N3)n2)CC1 (centres unmarked) [Example 320, 5-(2-chlorophenyl)sulfanyl-4-hydroxy-2-[6-(4-methoxycyclohexoxyl)-2-pyridyl]-2-(3-thienyl)-1,3-dihydropyridin-6-one]",0.093 µM
14,"O=C1CC(c2ccsc2)(c2cccc(OC3CCCc4ccccc43)n2)NC(=O)C1Sc1ccccc1Cl (centres unmarked) [Example 321, 5-(2-chlorophenyl)sulfanyl-4-hydroxy-2-(6-tetralin-1-yloxy-2-pyridyl)-2-(3-thienyl)-1,3-dihydro-pyridin-6-one]",0.246 µM
15,CC(Nc1cccc(C2(c3ccsc3)CC(=O)C(Sc3ccccc3Cl)C(=O)N2)n1)C1CC1 (centres unmarked) [Example 331],0.148 µM
16,CC(Nc1cccc(C2(c3ccsc3)CC(=O)C(Sc3ccccc3Cl)C(=O)N2)n1)C1CC1 (centres unmarked) [Example 332],0.168 µM
17,"O=C1CC(c2ccsc2)(c2cccc(OC3CCCc4c(F)cccc43)n2)NC(=O)C1Sc1ccccc1Cl (centres unmarked) [Example 333, 5-(2-chlorophenyl)sulfanyl-2-[6-(5-fluorotetralin-1-yl)oxy-2-pyridyl]-4-hydroxy-2-(3-thienyl)-1,3-dihydropyridin-6-one]",0.198 µM
18,"COc1cc(F)ccc1Oc1cccc(C2(c3ccsc3)CC(=O)C(Sc3ccccc3Cl)C(=O)N2)n1 (centres unmarked) [Example 334, 3-(2-chlorophenyl)sulfanyl-6-[6-(4-fluoro-2-methoxy-phenoxy)-2-pyridyl]-6-(3-thienyl)piperidine-2,4-dione]",0.739 µM
19,"O=C1CC(c2ccsc2)(c2cccc(Oc3ccccc3)n2)NC(=O)C1Sc1ccccc1Cl [Example 336, (6R)-3-(2-chlorophenyl) sulfanyl-6-(6-phenoxy-2-pyridyl)-6-(3-thienyl) piperidine-2,4-dione]",0.368 µM

# Next, values leading:
row,IC50,Compound
1,0.039 µM,"O=C1CC(c2ccsc2)(c2cccc(N[C@H](CO)c3ccc(F)c(Cl)c3)n2)NC(=O)C1Sc1ccccc1Cl (stereo partly drawn) [Example 296, 6-(6-(((S)-1-(3-chloro-4-fluorophenyl)-2-hydroxy-ethyl)amino)pyridin-2-yl)-3-((2-chlorophenyl)thio)-6-(thiophen-3-yl) piperidine-2,4-dione]"
2,0.092 µM,CC(Oc1cccc(C2(c3ccsc3)CC(=O)C(Sc3ccccc3Cl)C(=O)N2)n1)c1ccc(F)cc1 (centres unmarked) [Example 301]
3,0.021 µM,"CCC(Nc1cccc(C2(c3ccsc3)CC(=O)C(Sc3ccccc3Cl)C(=O)N2)n1)c1ccc(F)cc1 (centres unmarked) [Example 304, 3-((2-chlorophenyl)thio)-6-(6-((1-(4-fluoro-phenyl)propyl)amino)pyridin-2-yl)-6-(thiophen-3-yl)piperidine-2,4-dione]"
4,0.025 µM,CCC(Oc1cccc(C2(c3ccsc3)CC(=O)C(Sc3ccccc3Cl)C(=O)N2)n1)c1ccc(F)cc1 (centres unmarked) [Example 305]
5,0.014 µM,"O=C1CC(c2ccsc2)(c2cccc(Oc3ccc(C(F)(F)F)cc3)n2)NC(=O)C1Sc1ccccc1Cl (centres unmarked) [Example 315, 3-(2-chlorophenyl)sulfanyl-6-(3-thienyl)-6-[6-[4-(trifluoromethyl)phenoxy]-2-pyridyl]piperidine-2,4-dione]"
6,0.01 µM,"O=C1C[C@](c2ccc(N3CCOCC3)cc2)(c2cccc(Oc3ccc(F)c(F)c3)n2)NC(=O)C1Sc1ccccc1Cl (stereo partly drawn) [Example 318, (6S)-3-(2-chlorophenyl) sulfanyl-6-[6-(3,4-difluoro-phenoxy)-2-pyridyl]-6-(4-morpholinophenyl) piperidine-2,4-dione]"
7,0.084 µM,"O=C1CC(c2ccsc2)(c2cccc(Oc3ccc(F)nc3Cl)n2)NC(=O)C1Sc1ccccc1Cl (centres unmarked) [Example 324, 6-[6-[(2-chloro-6-fluoro-3-pyridyl)oxy]-2-pyridyl]-3-(2-chlorophenyl) sulfanyl-6-(3-thienyl) piperidine-2,4-dione]"
8,0.035 µM,"O=C1C[C@](c2ccsc2)(c2cccc(Oc3ccc(Br)cc3Cl)n2)NC(=O)C1Sc1ccccc1Cl (stereo partly drawn) [Example 327, (6S)-6-[6-(4-bromo-2-chloro-phenoxy)-2-pyridyl]-3-(2-chlorophenyl) sulfanyl-6-(3-thienyl) piperidine-2,4-dione]"
9,0.054 µM,"O=C1CC(c2ccsc2)(c2ccc(N3CCOCC3)c(F)c2)NC(=O)C1Sc1ccccc1Cl (centres unmarked) [Example 328, 3-(2-chlorophenyl)sulfanyl-6-(3-fluoro-4-morpholino-phenyl)-6-(3-thienyl)piperidine-2,4-dione]"
10,0.037 µM,"O=C1CC(c2ccsc2)(c2cccc(Nc3ccc(F)c(F)c3Cl)n2)NC(=O)C1Sc1ccccc1Cl (centres unmarked) [Example 329, 6-[6-(2-chloro-3,4-difluoro-anilino)-2-pyridyl]-3-(2-chlorophenyl)sulfanyl-6-(3-thienyl)piperidine-2,4-dione]"
11,0.041 µM,"O=C1C[C@](c2ccsc2)(c2cccc(Oc3ccc(C(F)(F)F)cc3)n2)NC(=O)C1Sc1ccccc1Cl (stereo partly drawn) [Example 330, (6S)-3-(2-chlorophenyl) sulfanyl-6-(3-thienyl)-6-[6-[4-(trifluoromethyl)phenoxy]-2-pyridyl] piperidine-2,4-dione]"
12,0.002 µM,"Cc1cc(Nc2cccc([C@@]3(c4ccsc4)CC(=O)C(Sc4ccccc4Cl)C(=O)N3)n2)cnc1F (stereo partly drawn) [Example 335, (6S)-3-(2-chlorophenyl) sulfanyl-6-[6-[(6-fluoro-5-methyl-3-pyridyl)amino]-2-pyridyl]-6-(3-thienyl) piperidine-2,4-dione]"
13,0.009 µM,"O=C1CC(c2cccc(Oc3ccc(F)cc3)n2)(c2ccccc2O)NC(=O)C1Sc1ccccc1Cl (centres unmarked) [Example 338, 5-(2-chlorophenyl)sulfanyl-2-[6-(4-fluorophenoxy)-2-pyridyl]-4-hydroxy-2-(2-hydroxyphenyl)-1,3-dihydropyridin-6-one]"
